Assay results: patent EP0531640B1, “Antibiotic LL-E19020 Gamma” (F. HOFFMANN-LA ROCHE AG, priority 1991, dated 1993)

Assay: Growth of chickens and efficiency of feed utilization
Format: in vivo, Peterson X Arbor Acres chicks
Conditions: chicks, 200 ppm in the diet (positive control), day 1 to day 14
Method: In this test, one day old Peterson X Arbor Acres chicks are sorted into equal weight groups of 5 males and 5 females per cage. Cages are randomized to treatment groups with six replicates per treatment. The test compound is evaluated 25 ppm in the diet against chicks receiving a non-medicated diet and a diet containing 200 ppm of penicillin as a positive control.
The cages are weighed at day 1 and at day 14 and feed consumption is measured on weigh days. Feed and water are offered ad libitum and lighting and supplemental heat are provided continuously.
The poultry diet employed in the test is as follows:
The vitamin-amino acid premix in the above feed composition is prepared from the following formulation. The expressions of quantity relate to units per kilogram of the finished feed composition.

Penicillin [reference compound]
Weight Gain: 344 g
Weight Gain, % improvement over control: 7.2%
feed conversion: 1.317
feed conversion, % improvement over control: 0.4%
